# How the values were obtained:
# [1] = Clearance in C57BL/6 mouse at 1 mg/kg, po measured upto 24 hrs by LC-MS/MS analysis; assay type: ADME, organism-based; conditions: in vivo
# [2] = target: T1, Estrogen receptor (Homo sapiens) (UniProt P03372); assay: Induction of ERalpha degradation in human MCF7 cells relative to control; assay type: cell-based
# T1 sequence (whole entry): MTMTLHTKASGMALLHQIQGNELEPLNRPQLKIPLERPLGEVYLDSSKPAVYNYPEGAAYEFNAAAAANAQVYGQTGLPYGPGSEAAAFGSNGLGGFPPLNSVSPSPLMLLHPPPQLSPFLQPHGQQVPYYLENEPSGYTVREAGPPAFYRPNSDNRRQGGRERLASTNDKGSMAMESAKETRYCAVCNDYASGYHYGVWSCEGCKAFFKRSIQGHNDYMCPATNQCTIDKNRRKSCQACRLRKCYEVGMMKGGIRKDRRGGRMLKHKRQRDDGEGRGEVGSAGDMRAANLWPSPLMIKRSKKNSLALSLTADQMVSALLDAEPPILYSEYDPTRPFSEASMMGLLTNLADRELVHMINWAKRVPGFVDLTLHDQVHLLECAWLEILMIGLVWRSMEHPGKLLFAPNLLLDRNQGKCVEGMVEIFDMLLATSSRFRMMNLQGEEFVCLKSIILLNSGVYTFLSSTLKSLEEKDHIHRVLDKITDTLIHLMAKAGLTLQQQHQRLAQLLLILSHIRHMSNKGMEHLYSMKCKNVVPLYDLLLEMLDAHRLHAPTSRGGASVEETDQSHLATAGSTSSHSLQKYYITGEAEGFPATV
# [3] = Oral bioavailability in C57BL/6 mouse at 1 mg/kg measured upto 24 hrs by LC-MS/MS analysis; assay type: ADME, organism-based; conditions: in vivo
# [4] = target: T2, Estrogen receptor (Homo sapiens, UniProt P03372); assay: Induction of ERalpha degradation in human MCF7 cells; assay type: cell-based
# T2 sequence (P03372 whole entry): T1 sequence (whole entry)
# [5] = Chromatographic hydrophobicity index, logD of the compound; assay type: physicochemical
# [6] = target: T3, Androgen receptor (Homo sapiens, UniProt P10275); assay: Induction of AR degradation in human LNCaP cells; assay type: cell-based
# T3 sequence (P10275 whole entry): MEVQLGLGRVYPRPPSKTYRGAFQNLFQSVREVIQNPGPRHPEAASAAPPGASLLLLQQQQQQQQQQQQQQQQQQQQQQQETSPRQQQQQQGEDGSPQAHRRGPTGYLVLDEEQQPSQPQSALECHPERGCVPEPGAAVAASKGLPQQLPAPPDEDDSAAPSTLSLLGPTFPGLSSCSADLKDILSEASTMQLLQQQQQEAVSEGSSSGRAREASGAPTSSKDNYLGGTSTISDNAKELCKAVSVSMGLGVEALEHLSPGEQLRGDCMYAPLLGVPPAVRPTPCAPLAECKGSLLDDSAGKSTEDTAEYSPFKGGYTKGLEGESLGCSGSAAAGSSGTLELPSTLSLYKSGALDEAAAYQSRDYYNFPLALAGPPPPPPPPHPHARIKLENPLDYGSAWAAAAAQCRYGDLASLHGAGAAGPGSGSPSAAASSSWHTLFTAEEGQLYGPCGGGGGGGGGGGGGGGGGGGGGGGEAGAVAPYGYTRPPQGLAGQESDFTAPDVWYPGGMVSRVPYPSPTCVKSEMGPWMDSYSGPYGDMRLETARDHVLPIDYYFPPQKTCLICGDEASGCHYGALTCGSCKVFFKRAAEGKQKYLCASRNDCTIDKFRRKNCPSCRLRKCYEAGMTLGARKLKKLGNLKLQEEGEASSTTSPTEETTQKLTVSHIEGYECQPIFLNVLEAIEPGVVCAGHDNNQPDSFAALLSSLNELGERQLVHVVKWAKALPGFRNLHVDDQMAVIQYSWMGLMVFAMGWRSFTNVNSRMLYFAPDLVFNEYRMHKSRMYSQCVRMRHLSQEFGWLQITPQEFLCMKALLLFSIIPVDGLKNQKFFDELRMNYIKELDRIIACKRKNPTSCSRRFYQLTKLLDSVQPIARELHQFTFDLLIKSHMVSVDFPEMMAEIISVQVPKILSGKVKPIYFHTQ
# [7] = target: T4, Androgen receptor (Homo sapiens) (UniProt P10275); assay: Induction of AR degradation in human LNCaP cells relative to control; assay type: cell-based
# T4 sequence (whole entry): T3 sequence (P10275 whole entry)
# [8] = Drug uptake in mouse plasma at 30 mg/kg, po; assay type: ADME, organism-based; conditions: in vivo
# [9] = Drug uptake in mouse plasma at 60 mg/kg, po; assay type: ADME, organism-based; conditions: in vivo
# [10] = target: T4, Androgen receptor (Homo sapiens); assay: Induction of AR degradation in human VCaP cells relative to control; assay type: cell-based
# [11] = target: T3, Androgen receptor; assay: Induction of AR degradation in human VCaP cells; assay type: cell-based
# [12] = Clearance in Han Wistar rat at 1 mg/kg, po measured upto 24 hrs by LC-MS/MS analysis; assay type: ADME, organism-based; conditions: in vivo
# [13] = Volume of distribution at steady state in C57BL/6 mouse at 1 mg/kg, po measured upto 24 hrs by LC-MS/MS analysis; assay type: ADME, organism-based; conditions: in vivo
# [14] = Oral bioavailability in Beagle dog at 1 mg/kg measured upto 24 hrs by LC-MS/MS analysis; assay type: ADME, organism-based, Canis lupus familiaris; conditions: in vivo
# [15] = Clearance in Beagle dog at 1 mg/kg, po measured upto 24 hrs by LC-MS/MS analysis; assay type: ADME, organism-based, Canis lupus familiaris; conditions: in vivo
# [16] = Half-life in Beagle dog at 1 mg/kg, po measured upto 24 hrs by LC-MS/MS analysis; assay type: ADME, organism-based, Canis lupus familiaris; conditions: in vivo
# [17] = Volume of distribution at steady state in Beagle dog at 1 mg/kg, po measured upto 24 hrs by LC-MS/MS analysis; assay type: ADME, organism-based, Canis lupus familiaris; conditions: in vivo
# [18] = Oral bioavailability in Han Wistar rat at 1 mg/kg measured upto 24 hrs by LC-MS/MS analysis; assay type: ADME, organism-based; conditions: in vivo
# [19] = Half-life in Han Wistar rat at 1 mg/kg, po measured upto 24 hrs by LC-MS/MS analysis; assay type: ADME, organism-based; conditions: in vivo
# [20] = Lipophilicity, logD of the compound at pH 7.4 by shake-flask assay; assay type: physicochemical; conditions: buffer
# [21] = Volume of distribution at steady state in Han Wistar rat at 1 mg/kg, po measured upto 24 hrs by LC-MS/MS analysis; assay type: ADME, organism-based; conditions: in vivo
# [22] = Half-life in C57BL/6 mouse at 1 mg/kg, po measured upto 24 hrs by LC-MS/MS analysis; assay type: ADME, organism-based; conditions: in vivo
# [23] = Dissociation constant, pKa of the compound; assay type: physicochemical
smiles,measurement,setting,value
C[C@@H]1Cc2c([nH]c3ccccc23)[C@@H](c2cnc(N3CCC(CCN4CCN(c5ccc6c(c5)CN(C5CCC(=O)NC5=O)C6=O)CC4)CC3)nc2)N1CC(C)(C)F (stereo not given in full),CL/F,[1],5 mL/min/kg
same,Emax,[2],> 90%
same,bioavailability,[3],15%
same,IC50,[4],≤ 1 nM
same,CHI,[5],6.1
Cc1ncsc1-c1ccc([C@H](C)NC(=O)[C@@H]2C[C@@H](O)CN2C(=O)[C@@H](NC(=O)COCCCCCNc2ccc(C(=O)N[C@H]3C(C)(C)[C@H](Oc4ccc(C#N)c(Cl)c4)C3(C)C)cc2)C(C)(C)C)cc1,CL/F,[1],4.7 mL/min/kg
same,bioavailability,[3],2%
same,DC50,[6],6 nM
same,CHI,[5],5.9
same,Emax,[7],96%
Cc1ncsc1-c1ccc([C@H](CC[C@H](C)CCN2CCC(c3ccc4c(c3)n3c5cccc(Br)c5c(=O)nc3n4C3CCCC3)CC2)NC(=O)[C@@H]2C[C@@H](O)CN2C(=O)[C@@H](NC(=O)C2(F)CC2)C(C)(C)C)cc1,Drug uptake,[8],Active
C[C@@H]1Cc2c([nH]c3ccccc23)[C@@H](c2cnc(N3CCC(CN(C)C4CCN(c5ccc6c(c5)CN(C5CCC(=O)NC5=O)C6=O)CC4)CC3)nc2)N1CC(C)(C)F (stereo not given in full),CL/F,[1],19.3 mL/min/kg
same,Emax,[2],> 90%
same,bioavailability,[3],12%
same,IC50,[4],≤ 1 nM
same,CHI,[5],5.6
Cc1ncsc1-c1ccc(CNC(=O)[C@@H]2C[C@@H](O)CN2C(=O)[C@@H](NC(=O)CCCCCCCCCCNC(=O)O[C@H]2C[C@@H](C)C=C3C=C[C@H](C)[C@H](CC[C@@H]4C[C@@H](O)CC(=O)O4)[C@H]32)C(C)(C)C)cc1,Drug uptake,[9],Active
C[C@@H]1Cc2c([nH]c3ccccc23)[C@@H](c2cnc(N3CCC(CNC4CCN(c5ccc6c(c5)CN(C5CCC(=O)NC5=O)C6=O)CC4)CC3)nc2)N1CC(C)(C)F (stereo not given in full),CL/F,[1],26.6 mL/min/kg
same,Emax,[2],> 90%
same,bioavailability,[3],< 1%
same,IC50,[4],≤ 1 nM
same,CHI,[5],4.7
C[C@@H]1Cc2c([nH]c3ccccc23)[C@@H](c2cnc(N3CCC(NC4CCN(c5ccc6c(c5)CN(C5CCC(=O)NC5=O)C6=O)CC4)CC3)nc2)N1CC(C)(C)F (stereo not given in full),CL/F,[1],51.4 mL/min/kg
same,Emax,[2],> 90%
same,bioavailability,[3],< 1%
same,IC50,[4],≤ 1 nM
same,CHI,[5],4.6
C[C@@H]1Cc2c([nH]c3ccccc23)[C@@H](c2cnc(N3CCC(CN4CCN(c5ccc6c(c5)CN(C5CCC(=O)NC5=O)C6=O)CC4)CC3)nc2)N1CC(C)(C)F (stereo not given in full),CL/F,[1],6.1 mL/min/kg
same,Emax,[2],> 90%
same,bioavailability,[3],45%
same,IC50,[4],≤ 1 nM
same,CHI,[5],6.1
COc1cc(O[C@H]2C(C)(C)[C@H](NC(=O)c3ccc(N4CCC(CN5CCN(c6ccc(C(=O)N[C@@H]7CCC(=O)NC7=O)c(F)c6)CC5)CC4)cc3)C2(C)C)ccc1C#N,Emax,[10],< 50%
same,DC50,[11],1 nM
C[C@@H]1Cc2c(n(C)c3ccccc23)[C@@H](c2cnc(N3CCC(CCN4CCN(c5ccc6c(c5)CN(C5CCC(=O)NC5=O)C6=O)CC4)CC3)nc2)N1CC(C)(C)F (mixture of isomers),CL/F,[1],5.3 mL/min/kg
same,bioavailability,[3],38%
same,CHI,[5],7
N#Cc1ccc(O[C@H]2CC[C@H](NC(=O)c3ccc(N4CCC(CN5CCN(c6cc7c(cc6F)C(=O)N(C6CCC(=O)NC6=O)C7=O)CC5)CC4)nn3)CC2)cc1Cl (stereo not given in full) [BAVDEGALUTAMIDE],CL/F,[12],9 mL/min/kg
same,Vdss,[13],3.8 L/kg
same,CL/F,[1],3.9 mL/min/kg
same,bioavailability,[14],14%
same,CL/F,[15],4.7 mL/min/kg
same,half-life,[16],32 h
same,Vdss,[17],13 L/kg
same,bioavailability,[18],51%
same,bioavailability,[3],65%
same,half-life,[19],9.3 h
same,logD,[20],4.8
same,Vdss,[21],7.8 L/kg
same,CHI,[5],5.1
same,half-life,[22],13 h
Cn1c(=O)n(C2CCC(=O)NC2=O)c2cccc(C#CCOC3CCN(C[C@H]4CC[C@H](n5cc(NC(=O)c6cnn7ccc(N8C[C@H]9C[C@@H]8CO9)nc67)c(C(F)F)n5)CC4)CC3)c21 (stereo not given in full) [KT-474],CL/F,[12],51 mL/min/kg
same,Vdss,[13],2.7 L/kg
same,CL/F,[1],17 mL/min/kg
same,bioavailability,[14],51%
same,CL/F,[15],16 mL/min/kg
same,Vdss,[17],6.7 L/kg
same,pKa,[23],8.5
same,bioavailability,[18],7%
same,bioavailability,[3],24%
same,logD,[20],3.6
same,Vdss,[21],7.7 L/kg
same,CHI,[5],2.3
COc1cc(O[C@H]2C(C)(C)[C@H](NC(=O)c3ccc(N4CCC(CN5CCN(c6ccc(C(=O)N[C@H]7CCC(=O)NC7=O)c(F)c6)CC5)CC4)cc3)C2(C)C)ccc1C#N [LUXDEGALUTAMIDE],CL/F,[12],16 mL/min/kg
same,Emax,[10],> 70%
same,Vdss,[13],2.3 L/kg
same,CL/F,[1],4.2 mL/min/kg
same,DC50,[11],< 1 nM
same,bioavailability,[14],33%
same,CL/F,[15],6.4 mL/min/kg
same,half-life,[16],31 h
same,Vdss,[17],15 L/kg
same,bioavailability,[18],38%
same,bioavailability,[3],58%
same,half-life,[19],7.4 h
same,logD,[20],4.7
same,Vdss,[21],9.1 L/kg
same,CHI,[5],5
same,half-life,[22],6.8 h
O=C1CC[C@H](N2Cc3cc(N4CCN(CC5CCN(c6ccc([C@@H]7c8ccc(O)cc8CC[C@@H]7c7ccccc7)cc6)CC5)CC4)ccc3C2=O)C(=O)N1 [VEPDEGESTRANT],CL/F,[12],28 mL/min/kg
same,CL/F,[1],35 mL/min/kg
same,bioavailability,[14],5%
same,CL/F,[15],3 mL/min/kg
same,half-life,[16],11 h
same,bioavailability,[18],24%
same,bioavailability,[3],59%
same,half-life,[19],15 h
same,logD,[20],4.6
same,CHI,[5],5.3
same,half-life,[22],6.2 h

# Source: ChEMBL document CHEMBL5550212, “Structural and Physicochemical Features of Oral PROTACs” (J Med Chem, 2024)
